Measured values from patent US8722849B2, “Polypeptides” (Novo Nordisk A/S, priority 2011, dated 2014).
≈ marks a conversion by molar mass, not a printed value. Where two headings read alike, the source gives them in different places. Starred links: 1 amine or outer side, 2 acyl side, 3 side chain; linkers in the order of their positions; H or OH if unused. Positions of bridges follow the written chain, without caps; N, C: chain ends. Residues, ends and D or L forms follow the SMILES beside them. Groups on a side chain read outwards from the residue. *: point of attachment. C20 diacid = O=C(O)CCCCCCCCCCCCCCCCCCC(=O)*; γGlu = O=C(O)[C@H](CCC(=O)[*:2])N[*:1]; AEEA = NCCOCCOCC(=O)O

Experiment: Assay (IV) determination of solubility
Type: physicochemical
Protocol: ASSAY (IV)—Determination of Solubility
The polypeptide was dissolved in water at ˜500 nmol/ml and mixed 1:1 with a series of buffers (100 mM glycylglycine pH 3.0, 100 mM glycylglycine pH 4.0, 100 mM glycylglycine pH 5.0, 100 mM bistrispropane pH 6.0, 100 mM bistrispropane pH 6.5, 100 mM bistrispropane pH 7.0, 100 mM bistrispropane pH 7.5, 100 mM bistrispropane pH 8.0). After 18 hours at room temperature the samples were centrifuged and the polypeptide concentration determined by HPLC.

[1] = pH 3, pH 3.0, read-out: Solubility pH 3.0
[2] = pH 4, pH 4.0, 18 hours at room temperature, Table 2, read-out: Solubility pH 4.0
[3] = pH 4, pH 4.0, read-out: Solubility pH 4.0
[4] = pH 5, pH 5.0, read-out: Solubility pH 5.0
[5] = pH 6, pH 6.0, read-out: Solubility pH 6.0
[6] = pH 6.5, pH 6.5, read-out: Solubility pH 6.5
[7] = pH 7, pH 7.0, read-out: Solubility pH 7.0
[8] = pH 7.5, pH 7.5, read-out: Solubility pH 7.5
[9] = pH 8, pH 8.0, read-out: Solubility pH 8.0
[10] = pH 7, pH 7.0, 18 hours at room temperature, Table 3, read-out: Solubility pH 7.0

Row | solubility [1] | solubility [2] | solubility [3] | solubility [4] | solubility [5] | solubility [6] | solubility [7] | solubility [8] | solubility [9] | solubility [10] | Compound
1 | > 200 µM | > 200 µM | > 200 µM | > 200 µM | 32 µM (≈ 152 µg/mL) | 3 µM (≈ 14.3 µg/mL) | 13 µM (≈ 61.8 µg/mL) | 114 µM (≈ 542 µg/mL) | > 200 µM |  | CC[C@H](C)[C@H](NC(=O)[C@@H]1CCCN1C(=O)CNC(=O)[C@H](Cc1ccccc1)NC(=O)[C@H](CC(N)=O)NC(=O)[C@H](CO)NC(=O)[C@H](CO)NC(=O)[C@H](CO)NC(=O)[C@H](Cc1c[nH]cn1)NC(=O)[C@H](Cc1c[nH]cn1)NC(=O)[C@H](CC(C)C)NC(=O)[C@H](Cc1ccccc1)NC(=O)[C@H](CCC(=O)O)NC(=O)[C@H](C)NC(=O)[C@H](CC(C)C)NC(=O)[C@H](CCCNC(=N)N)NC(=O)[C@H](CCC(N)=O)NC(=O)[C@@H](NC(=O)[C@H](C)NC(=O)[C@@H]1CSSC[C@H](NC(=O)[C@H](Cc2c[nH]cn2)NC(=O)COCCOCCNC(=O)COCCOCCNC(=O)CC[C@H](NC(=O)CCCCCCCCCCCCCCCCCCC(=O)O)C(=O)O)C(=O)N[C@@H](CC(N)=O)C(=O)N[C@@H]([C@@H](C)O)C(=O)N[C@@H](C)C(=O)N[C@@H]([C@@H](C)O)C(=O)N1)[C@@H](C)O)C(=O)N[C@@H](CC(C)C)C(=O)N1CCC[C@H]1C(=O)N1CCC[C@H]1C(=O)N[C@H](C(=O)N[C@@H](CC(N)=O)C(=O)N[C@H](C(=O)NCC(=O)N[C@@H](CO)C(=O)N[C@@H](Cc1c[nH]cn1)C(=O)N[C@H](C(=O)N[C@@H](Cc1ccc(O)cc1)C(N)=O)[C@@H](C)O)C(C)C)[C@@H](C)O [Example 119, N-alpha-[2-(2-{2-[2-(2-{2-[(S)-4-Carboxy-4-(19-carboxyheptadecanoylamino)butyrylamino]ethoxy}ethoxy)acetylamino]ethoxy}ethoxy)acetyl]-[His1,Glu14,His17,Ser21,His35]-pramlintide] ({C20 diacid-γGlu-AEEA-AEEA}-HCNTATCATQRLAEFLHHSSSNFGPILPPTNVGSHTY-NH2; disulfide 2-7)
2 | > 200 µM | > 200 µM | > 200 µM | > 200 µM | > 200 µM | > 200 µM | > 200 µM | > 200 µM | > 200 µM | > 200 µM | CC[C@H](C)[C@H](NC(=O)[C@@H]1CCCN1C(=O)CNC(=O)[C@H](Cc1ccccc1)NC(=O)[C@H](CC(N)=O)NC(=O)[C@H](CCCCNC(=O)COCCOCCNC(=O)COCCOCCNC(=O)CC[C@H](NC(=O)CCCCCCCCCCCCCCCCCCC(=O)O)C(=O)O)NC(=O)[C@H](CO)NC(=O)[C@H](CO)NC(=O)[C@H](Cc1c[nH]cn1)NC(=O)[C@@H](NC(=O)[C@H](CC(C)C)NC(=O)[C@H](Cc1ccccc1)NC(=O)[C@H](CCC(=O)O)NC(=O)[C@H](C)NC(=O)[C@H](CC(C)C)NC(=O)[C@H](CCCNC(=N)N)NC(=O)[C@H](CCC(N)=O)NC(=O)[C@@H](NC(=O)[C@H](C)NC(=O)[C@@H]1CSSC[C@H](NC(=O)[C@@H](N)CCCCN)C(=O)N[C@@H](CC(N)=O)C(=O)N[C@@H]([C@@H](C)O)C(=O)N[C@@H](C)C(=O)N[C@@H]([C@@H](C)O)C(=O)N1)[C@@H](C)O)C(C)C)C(=O)N[C@@H](CC(C)C)C(=O)N1CCC[C@H]1C(=O)N[C@@H](CO)C(=O)N[C@H](C(=O)N[C@@H](CC(N)=O)C(=O)N[C@H](C(=O)NCC(=O)N[C@@H](CO)C(=O)N[C@@H](Cc1c[nH]cn1)C(=O)N[C@H](C(=O)N[C@@H](Cc1ccc(O)cc1)C(N)=O)[C@@H](C)O)C(C)C)[C@@H](C)O [Example 127, N-epsilon21-[2-(2-{2-[2-(2-{2-[(S)-4-Carboxy-4-(19-carboxyheptadecanoylamino)butyrylamino]ethoxy}ethoxy)acetylamino]ethoxy}ethoxy)acetyl]-[Glu14,Lys21,Ser29,His35]-pramlintide] (H-KCNTATCATQRLAEFLVHSSK([AEEA-AEEA-γGlu-C20 diacid])NFGPILPSTNVGSHTY-NH2; disulfide 2-7)
3 | > 200 µM | 172 µM (≈ 813 µg/mL) | 172 µM (≈ 813 µg/mL) | 150 µM (≈ 709 µg/mL) | 25 µM (≈ 118 µg/mL) | 27 µM (≈ 128 µg/mL) | 6 µM (≈ 28.4 µg/mL) | 4 µM (≈ 18.9 µg/mL) | 3 µM (≈ 14.2 µg/mL) |  | CC[C@H](C)[C@H](NC(=O)[C@@H]1CCCN1C(=O)CNC(=O)[C@H](Cc1ccccc1)NC(=O)[C@H](CC(N)=O)NC(=O)[C@H](CCCCNC(=O)COCCOCCNC(=O)COCCOCCNC(=O)CC[C@H](NC(=O)CCCCCCCCCCCCCCCCCCC(=O)O)C(=O)O)NC(=O)[C@H](CO)NC(=O)[C@H](CO)NC(=O)[C@H](Cc1c[nH]cn1)NC(=O)[C@@H](NC(=O)[C@H](CC(C)C)NC(=O)[C@H](Cc1ccccc1)NC(=O)[C@H](CCC(=O)O)NC(=O)[C@H](C)NC(=O)[C@H](CC(C)C)NC(=O)[C@H](CCCNC(=N)N)NC(=O)[C@H](CCC(N)=O)NC(=O)[C@@H](NC(=O)[C@H](C)NC(=O)[C@@H]1CSSC[C@H](NC(=O)[C@@H](N)CCCCN)C(=O)N[C@@H](CC(N)=O)C(=O)N[C@@H]([C@@H](C)O)C(=O)N[C@@H](C)C(=O)N[C@@H]([C@@H](C)O)C(=O)N1)[C@@H](C)O)C(C)C)C(=O)N[C@@H](CC(C)C)C(=O)N[C@@H](CO)C(=O)N[C@@H](CO)C(=O)N[C@H](C(=O)N[C@@H](CC(N)=O)C(=O)N[C@H](C(=O)NCC(=O)N[C@@H](CO)C(=O)N[C@@H](Cc1c[nH]cn1)C(=O)N[C@H](C(=O)N[C@@H](Cc1ccc(O)cc1)C(N)=O)[C@@H](C)O)C(C)C)[C@@H](C)O [Example 131, N-epsilon21-[2-(2-{2-[2-(2-{2-[(S)-4-Carboxy-4-(19-carboxyheptadecanoylamino)butyrylamino]ethoxy}ethoxy)acetylamino]ethoxy}ethoxy)acetyl]-[Glu14,Lys21,Ser28,Ser29,His35]-pramlintide] (H-KCNTATCATQRLAEFLVHSSK([AEEA-AEEA-γGlu-C20 diacid])NFGPILSSTNVGSHTY-NH2; disulfide 2-7)
4 | > 200 µM | > 200 µM | > 200 µM | > 200 µM | > 200 µM | 198 µM (≈ 940 µg/mL) | 142 µM (≈ 674 µg/mL) | 169 µM (≈ 802 µg/mL) | > 200 µM | 142 µM (≈ 674 µg/mL) | CC[C@H](C)[C@H](NC(=O)[C@@H]1CCCN1C(=O)CNC(=O)[C@H](Cc1ccccc1)NC(=O)[C@H](CC(N)=O)NC(=O)[C@H](CCCCNC(=O)COCCOCCNC(=O)COCCOCCNC(=O)CC[C@H](NC(=O)CCCCCCCCCCCCCCCCCCC(=O)O)C(=O)O)NC(=O)[C@H](CO)NC(=O)[C@H](CO)NC(=O)[C@H](Cc1c[nH]cn1)NC(=O)[C@@H](NC(=O)[C@H](CC(C)C)NC(=O)[C@H](Cc1ccccc1)NC(=O)[C@H](CCC(=O)O)NC(=O)[C@H](C)NC(=O)[C@H](CC(C)C)NC(=O)[C@H](CCCNC(=N)N)NC(=O)[C@H](CCC(N)=O)NC(=O)[C@@H](NC(=O)[C@H](C)NC(=O)[C@@H]1CSSC[C@H](NC(=O)[C@@H](N)CCCCN)C(=O)N[C@@H](CC(N)=O)C(=O)N[C@@H]([C@@H](C)O)C(=O)N[C@@H](C)C(=O)N[C@@H]([C@@H](C)O)C(=O)N1)[C@@H](C)O)C(C)C)C(=O)N[C@@H](CC(C)C)C(=O)N1CCC[C@H]1C(=O)N1CCC[C@H]1C(=O)N[C@H](C(=O)N[C@@H](CC(N)=O)C(=O)N[C@H](C(=O)NCC(=O)N[C@@H](CO)C(=O)N[C@@H](Cc1c[nH]cn1)C(=O)N[C@H](C(=O)N[C@@H](Cc1ccc(O)cc1)C(N)=O)[C@@H](C)O)C(C)C)[C@@H](C)O [Example 132, N-epsilon21-[2-(2-{2-[2-(2-{2-[(S)-4-Carboxy-4-(19-carboxyheptadecanoylamino)butyrylamino]ethoxy}ethoxy)acetylamino]ethoxy}ethoxy)acetyl]-[Glu14,Lys21,His35]-pramlintide] (H-KCNTATCATQRLAEFLVHSSK([AEEA-AEEA-γGlu-C20 diacid])NFGPILPPTNVGSHTY-NH2; disulfide 2-7)
5 | > 200 µM | > 200 µM | > 200 µM | 107 µM (≈ 509 µg/mL) | 1 µM (≈ 4.75 µg/mL) | 1 µM (≈ 4.75 µg/mL) | 1 µM (≈ 4.75 µg/mL) | 1 µM (≈ 4.75 µg/mL) |  |  | CC[C@H](C)[C@H](NC(=O)[C@H](CCCCNC(=O)COCCOCCNC(=O)COCCOCCNC(=O)CC[C@H](NC(=O)CCCCCCCCCCCCCCCCCCC(=O)O)C(=O)O)NC(=O)CNC(=O)[C@H](Cc1ccccc1)NC(=O)[C@H](CC(N)=O)NC(=O)[C@H](CO)NC(=O)[C@H](CO)NC(=O)[C@H](CO)NC(=O)[C@H](Cc1c[nH]cn1)NC(=O)[C@H](Cc1c[nH]cn1)NC(=O)[C@H](CC(C)C)NC(=O)[C@H](Cc1ccccc1)NC(=O)[C@H](CCC(=O)O)NC(=O)[C@H](C)NC(=O)[C@H](CC(C)C)NC(=O)[C@H](CCCNC(=N)N)NC(=O)[C@H](CCC(N)=O)NC(=O)[C@@H](NC(=O)[C@H](C)NC(=O)[C@@H]1CSSC[C@H](NC(=O)[C@@H](N)CCCCN)C(=O)N[C@@H](CC(N)=O)C(=O)N[C@@H]([C@@H](C)O)C(=O)N[C@@H](C)C(=O)N[C@@H]([C@@H](C)O)C(=O)N1)[C@@H](C)O)C(=O)N[C@@H](CC(C)C)C(=O)N[C@@H](CO)C(=O)N[C@@H](CO)C(=O)N[C@H](C(=O)N[C@@H](CC(N)=O)C(=O)N[C@H](C(=O)NCC(=O)N[C@@H](CO)C(=O)N[C@@H](Cc1c[nH]cn1)C(=O)N[C@H](C(=O)N[C@@H](Cc1ccc(O)cc1)C(N)=O)[C@@H](C)O)C(C)C)[C@@H](C)O [Example 133, N-epsilon25-[2-(2-{2-[2-(2-{2-[(S)-4-Carboxy-4-(19-carboxyheptadecanoylamino)butyrylamino]ethoxy}ethoxy)acetylamino]ethoxy}ethoxy)acetyl]-[Glu14,His17,Ser21,Lys25,Ser28,Ser29.His35]-pramlintide] (H-KCNTATCATQRLAEFLHHSSSNFGK([AEEA-AEEA-γGlu-C20 diacid])ILSSTNVGSHTY-NH2; disulfide 2-7)
